Read-outs that look alike come from different tables or passages of the source.
Legend:
[1] = target: T1, human progesterone receptor (PR) (Homo sapiens, UniProt P06401); test: Test of progesterone receptor agonist activity (MMTV-luciferase transactivation in transfected HEK293T cells); assay type: cell-based; details: 24 hours, increasing amounts, FIG. 1
T1 construct: expressed in transfected cells; host or cells: HEK293T
T1 sequence (P06401 1-933): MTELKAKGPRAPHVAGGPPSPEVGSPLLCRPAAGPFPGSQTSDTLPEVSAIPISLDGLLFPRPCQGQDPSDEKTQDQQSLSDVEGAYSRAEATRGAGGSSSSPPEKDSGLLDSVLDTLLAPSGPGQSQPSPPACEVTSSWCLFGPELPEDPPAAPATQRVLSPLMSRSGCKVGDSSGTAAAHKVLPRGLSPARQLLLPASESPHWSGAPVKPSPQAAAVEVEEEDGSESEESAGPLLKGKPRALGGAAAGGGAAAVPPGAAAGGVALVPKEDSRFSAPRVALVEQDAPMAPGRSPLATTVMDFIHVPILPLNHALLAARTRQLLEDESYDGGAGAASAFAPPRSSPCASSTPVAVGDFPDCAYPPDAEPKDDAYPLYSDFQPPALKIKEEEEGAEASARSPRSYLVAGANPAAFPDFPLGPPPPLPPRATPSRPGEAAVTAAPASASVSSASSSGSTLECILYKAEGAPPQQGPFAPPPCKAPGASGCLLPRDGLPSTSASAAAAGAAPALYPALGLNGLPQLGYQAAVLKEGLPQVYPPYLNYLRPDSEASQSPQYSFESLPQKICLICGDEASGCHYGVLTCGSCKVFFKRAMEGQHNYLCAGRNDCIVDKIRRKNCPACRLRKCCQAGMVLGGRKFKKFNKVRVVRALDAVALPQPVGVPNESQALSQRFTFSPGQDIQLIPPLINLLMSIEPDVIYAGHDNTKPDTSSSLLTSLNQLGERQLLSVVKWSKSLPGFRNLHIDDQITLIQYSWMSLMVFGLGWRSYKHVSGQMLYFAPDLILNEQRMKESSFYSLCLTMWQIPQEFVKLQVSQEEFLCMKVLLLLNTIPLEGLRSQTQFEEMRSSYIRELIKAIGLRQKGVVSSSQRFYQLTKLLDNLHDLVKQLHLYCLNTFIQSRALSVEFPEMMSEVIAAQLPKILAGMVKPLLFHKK
Procedure: (§1) The main experimental setting used is the following: HEK293T cells were transiently transfected, using calcium phosphate precipitation technology, with expression vectors pSG5hPR (which permits expression of human progesterone receptor (PR)), pFC31-luc (contains the luciferase gene under the control of the MMTV promoter, which is in turn activated by binding of a progestin to progesterone receptor) and pcbetagal (which permits expression of betagalactosidase), and cultured during 24 hours with increasing amounts of various compositions:
Test of Progesterone Receptor Agonist Activity: Transfected Cells were Cultured with Increasing Amounts of Progesterone or 3-Methoxy-Pregnenolone

[2] = target: T1, human progesterone receptor (PR); test: Test of progesterone receptor antagonist activity (MMTV-luciferase transactivation with progesterone 1 nM); assay type: cell-based; details: HEK293T cells, progesterone 1 nM plus increasing amounts; FIG. 2
Procedure: as §1
Test of progesterone receptor […] activity: transfected cells were cultured with progesterone (1 nM) and increasing amounts of RU486 (a well-known progesterone receptor antagonist) or 3-methoxy-pregnenolone.
With this setting, a compound with progesterone receptor antagonist activity competes with progesterone for the occupation of progesterone receptor and results in a progressive loss of transactivation activity when the amount of this compound is increased compared to progesterone.

Wistar (WI) rats = test: Forced swimming test (FST) in WI rats, dose-ranging; assay type: in vivo, rat; details: FIG. 6A
Procedure: After, a 6-day period of acclimatization, the acute phase of treatment started for 4 days during behavioral tests were performed (FIG. 3). All animals were injected 1 h 30 before the starting of behavioral test.
Rats were submitted to the forced swimming test (FST), according the procedure initially described by (Detke et al., 1995) and slightly modified by (Bianchi et al., 2002). Briefly, rats were individually placed into a Plexiglas cylinder (40 cm height, 20 cm diameter) containing 25 cm of water at 25±1° C., under 50 lux illumination. After a pre-test session of 15 min, rats were removed, dried and returned to its housed cage. Twenty-four hours after the pre-test session, rats were still placed in the swim cylinder (under identical conditions) for the 5-min test session. The pre-test and test sessions were recorded using a video camera placed above the cylinder for subsequent behavioral analysis. The immobility time (in sec) was blindly measured by two independent experimenters from recorded videos. Rats were considered as immobile when none activity was observed other than that required to keep the rat's head above the water.

Wistar Kyoto (WKY) rats = test: Novel object recognition (NOR) test in WKY rats, chronic administration; assay type: in vivo, rat; details: MAP4343 15 mg/kg, s.c., 24 days
Procedure: Wistar Kyoto (WKY) rats are considered as a model of treatment-resistant depression, while Wistar (WI) rats are used as control strain of WKY rats. During this experiment both WI and WKY rats were administered with MAP4343 (15 mg/Kg), subcutaneously (s.c.) for 24 days. Behavioral tests were performed at during the last week of treatment, and rats were finally sacrificed for addressing neurogenesis in Gyrus dentate of hippocampus using histological experiments. Organization of this protocol is depicted in FIG. 7.
MAP4343 was diluted in sesame oil, and then administered subcutaneously (s.c.) at the dose of 15 mg/kg during 24 days. The vehicle group received only the sesame oil (1 ml/kg) in the similar conditions.
The NOR task is a test of recognition memory based on the spontaneous preference of rats for novelty. The applied procedure was based on that previously described by Ennaceur and Delacour (1988). NOR task was performed at D21 of the treatment period (see FIG. 7). In a first session (habituation, 5 min), each rat was familiarized with two identical objects placed in the border of the open-field area (70×100×70 cm). In a second session performed 1 h after (novel object recognition, 5 min), one of the two familiar objects was replaced by a novel object. […] Results are given as exploratory time for the novel object and the total exploratory time.

[3] = system: purified tubulin and MAP2; test: Activity: increase in optical density at 345 nm of purified tubulin and MAP2 with GTP; assay type: biochemical; details: 37° C.
Procedure: Activity is measured by the increase in optical density at 345 nm of a mixture of purified tubulin and MAP2, incubated at 37° C. in the presence of GTP.

[4] = system: adult male Sprague Dawley rats; details: cited from earlier work
[5] = system: social-isolated adult male Sprague Dawley rats; details: cited from earlier work

CO[C@H]1CC[C@@]2(C)C(=CC[C@H]3[C@@H]4CC[C@H](C(C)=O)[C@@]4(C)CC[C@@H]32)C1 [MAP4343, 3β-methoxy-pregna-5-ene-20-one]
progesterone receptor agonist activity (transactivation, expression of luciferase) [1]: does not have progesterone receptor agonist activity | progesterone receptor antagonist activity (loss of transactivation) [2]: weak progesterone receptor antagonist | immobility time in FST, change vs WI receiving vehicle alone (Wistar (WI) rats; MAP4343 10 mg/kg): −27% | immobility time in FST, change vs WI receiving vehicle alone (Wistar (WI) rats; MAP4343 15 mg/kg): −31% | immobility time in FST, dose-ranging effect (Wistar (WI) rats; MAP4343 1, 5, 10 and 15 mg/kg): dose-dependent reduction of immobility time | time spent with the novel object in NOR, change vs WKY receiving only vehicle (Wistar Kyoto (WKY) rats; FIG. 8B): +58% | total exploratory time in NOR, change vs WKY receiving only vehicle (Wistar Kyoto (WKY) rats; FIG. 8C): +41% | Activity [3]: 100% of PREG | immobility in the forced swimming test ([4]; naïve adult male Sprague Dawley rats, U.S. Pat. No. 8,334,278): decreases immobility | immobility in the forced swimming test ([4]; social-isolated adult male Sprague Dawley rats, Bianchi and Baulieu, 2012): decreased immobility | anxiety in the EPM test ([5]; acute phase (2 days of daily injections)): not in the acute phase | anxiety in the EPM test ([5]; subchronic phase (8 days of daily injections)): recovered increased anxiety
